Results on two molecules are retold here after patent publication US20240358669A1, “METHODS FOR TREATING PANCREATIC CANCER” (Olatec Therapeutics, Inc., priority 2022, published 2024).

Data set [1] concerns KPC cells, a murine PDAC cell line. In words: Orthotopic KPC pancreatic cancer model in mice, dapansutrile and gemcitabine combination (Example 2). Type of data set: in vivo, C57BL/6 male mice. The following applies: sacrifice after 21 days; gemcitabine 100 mg/kg i.p. every three days from day 10; dapansutrile diet; vs PBS vehicle (combination also vs monotherapies). The method, then: Tumor-bearing mice were prepared according to Example 1 and monitored daily until the sacrifice after 21 days.
Mice treated with dapansutrile were fed with dapansutrile by the same protocol as described in Example 1.
Control mice received PBS
At sacrifice, tumor volume and tumor weight were assessed in the 4 groups of mice.

The target in another data set is NLRP3 inflammasome (Homo sapiens, UniProt Q96P20). The following applies: cited from earlier work.
Chain of NLRP3 inflammasome (Q96P20 whole entry): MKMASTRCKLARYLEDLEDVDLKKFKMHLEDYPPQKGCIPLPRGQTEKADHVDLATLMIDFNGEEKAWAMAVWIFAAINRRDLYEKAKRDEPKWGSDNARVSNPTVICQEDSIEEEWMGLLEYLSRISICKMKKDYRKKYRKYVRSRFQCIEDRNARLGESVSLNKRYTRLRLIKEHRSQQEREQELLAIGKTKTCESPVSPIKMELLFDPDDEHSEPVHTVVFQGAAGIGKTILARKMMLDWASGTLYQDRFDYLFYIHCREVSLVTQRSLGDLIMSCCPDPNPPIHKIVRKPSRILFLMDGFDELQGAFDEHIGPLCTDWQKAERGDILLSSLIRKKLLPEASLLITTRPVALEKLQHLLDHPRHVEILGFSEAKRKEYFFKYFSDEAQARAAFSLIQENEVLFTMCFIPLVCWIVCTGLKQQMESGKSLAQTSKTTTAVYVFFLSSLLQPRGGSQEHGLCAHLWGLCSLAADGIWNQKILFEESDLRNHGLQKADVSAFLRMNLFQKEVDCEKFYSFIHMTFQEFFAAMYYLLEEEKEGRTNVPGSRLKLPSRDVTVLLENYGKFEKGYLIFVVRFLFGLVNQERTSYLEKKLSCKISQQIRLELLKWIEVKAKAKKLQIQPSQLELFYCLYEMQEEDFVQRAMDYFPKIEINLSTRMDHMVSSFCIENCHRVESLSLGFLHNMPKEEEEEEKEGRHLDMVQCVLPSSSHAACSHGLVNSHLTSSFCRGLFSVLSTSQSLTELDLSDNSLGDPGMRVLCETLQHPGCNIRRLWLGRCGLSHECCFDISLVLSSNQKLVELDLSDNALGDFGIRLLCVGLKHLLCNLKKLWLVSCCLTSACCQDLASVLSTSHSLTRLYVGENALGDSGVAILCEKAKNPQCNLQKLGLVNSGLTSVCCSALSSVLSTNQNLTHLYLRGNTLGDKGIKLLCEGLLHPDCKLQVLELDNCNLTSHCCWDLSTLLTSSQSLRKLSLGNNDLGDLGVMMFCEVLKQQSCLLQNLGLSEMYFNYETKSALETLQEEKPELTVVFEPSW
The next data set relates to COX2/PGE2. The experiment in a line: Effect of dapansutrile on COX2/PGE2. The note with it: immunosuppressive pathway in PDAC.
For data set [2] the following is noted: healthy subjects, oral; cited from earlier work.
Data set [3] deals with KPC cells, a murine PDAC cell line. The experiment in a line: Orthotopic KPC pancreatic cancer model in mice, dapansutrile diet (Example 1). Type of data set: in vivo, C57BL/6 male mice. The following applies: dapansutrile diet 7.5 g/kg food ad libitum from surgery, sacrifice after 21 days, vs standard diet. How it is done: C57BL/6 male mice (8 weeks old) were purchased from Jackson Laboratories (Bar Harbor, ME). Mice were anesthetized and following opening the abdominal cavity, the tip of pancreatic tail was gently grasped, and the pancreas/spleen was externalized in a lateral direction, exposing the entire pancreatic body and spleen. 100,000 KPC cells, a murine PDAC cell line, were mixed 1:1 with Matrigel (VF=20 μl) and injected into the tail of the pancreas. The pancreas was then gently internalized with blunt forceps and the abdominal muscle layer, and the skin was closed separately with absorbable sutures.
Following the initial injections of KPC cells, tumor bearing mice were monitored daily until the sacrifice after 21 days. At sacrifice, tumor volume and weight were assessed in the vehicle (n=16) and OLT1177® (dapansutrile)-treated mice (n=16).
From the date of surgery, mice were treated with oral dapansutrile via feed pellets ad libitum. The composition of the food is the standard mouse chow enriched with 7.5 gr of dapansutrile per kilogram of food. […]
At sacrifice, tumor volume in different groups was calculated using the modified ellipsoidal formula V=(LW^2)/2, where L is the length of the longest tumor dimension parallel to the skin containing the tumor midpoint, W is the length of the tumor dimension perpendicular to L and parallel to the skin, and V is tumor volume in cubic millimeters (mm^3).

A further data set deals with non-immune cells. The experiment in a line: Effect of dapansutrile on non-immune cell proliferation.

SMILES strings stand for the structures.

With `Nc1ccn([C@@H]2O[C@H](CO)[C@@H](O)C2(F)F)c(=O)n1` [gemcitabine, Gemcitabine, reference compound], in data set [1], the tumor weight entry is “significant reduction”.

Regarding `CS(=O)(=O)CCC#N` [dapansutrile, 3-methanesulfonyl-propionitrile], the “inhibition of the NLRP3 inflammasome” value at NLRP3 inflammasome is on record as “selectively inhibit”. Moreover, the COX2/PGE2 result in the data set on COX2/PGE2 was “significant reduction”. Moreover, the “safety when orally administered” value in data set [2] was “safe”. The tumor volume entry is given as “reduced tumor volume” in data set [3] (p<0.0001) and “significant reduction” in data set [1]. The tumor weight result in data set [3] (p<0.01) is on record as “reduced tumor weight”; in data set [1], “significant reduction”. For the same molecule, the non-immune cells proliferation entry in the data set on non-immune cells is “no effect”.
